Results on one molecule are retold here after patent US20060122267A1, “Compositions and methods for attenuating mitochondria-mediated cell injury” (priority 2003, published 2006).

In one experiment the test system is mitochondrial proteins. Description: Biotin-switch analysis of mitochondrial protein S-nitrosation. It is filed as biochemical, rat. As to the method: (§1) Rat heart mitochondria were isolated using differential centrifugation (Tompkins, et al. (2005) Biochim. Biophys. Acta PMID: 16278076). Protein was determined by the Folin-phenol method (Lowry, et al. (1951) J. Bio. Chem. 193:265-75) against a standard curve constructed using bovine serum albumin. Mitochondrial incubations and all subsequent steps were performed in the dark. One mg of mitochondrial protein was suspended in 1 mL of mitochondrial respiration buffer (Tompkins, et al. (2005) supra) containing respiratory substrates glutamate (5 mM), malate (2.5 mM) and succinate (5 mM). […] Samples were centrifuged (5 minutes, 14,000×g), and supernatants removed. The pellets were then resuspended in 1 mL of respiration buffer, and centrifuged again. Pellets were frozen in liquid N2 for subsequent analysis. For ONOO^− treatments, 4 μL of 25 mM ONOO^− stock (100 μM final concentration) was added the cap of the reaction tube, the cap quickly closed and the tube shaken immediately. The process was then repeated twice at 30 second intervals, for a total of 3 additions. Mitochondria were then pelleted, washed, and frozen as for S-nitrosoglutathione samples. Complex I activity was assayed as the rotenone-sensitive oxidation of NADH, at 340 nm in the presence of coenzyme Q1 (Borutaite, et al. (2000) supra). Complex IV was assayed by monitoring the cyanide-sensitive first-order oxidation of reduced cytochrome c, at 550 nm according to established methods (Cleeter, et al. (1994) supra).
For biotin-switch analysis, intact mitochondrial pellets (1 mg protein solubilized in extraction buffer) or chromatography column fractions were analyzed in accordance with known methods (Jaffrey & Snyder (2001) supra). Samples were separated in duplicate on non-reducing SDS-PAGE gels; half the gel was stained with COOMASSIE® blue, and the other half blotted and probed with streptavidin-HRP and ECL™ detection (GE biosciences). Blots and stained gels were aligned, and S-nitrosated proteins excised, trypsinized, and identified by peptide mass fingerprinting. Mass spectra (MALDI-TOF) were analyzed using the MASCOT™ algorithm available on the world-wide web at matrixscience.com.

The subject of the next experiment is rat heart mitochondria. Description: Chemiluminescent NO analysis of total S-nitrosothiol in treated mitochondria. It is filed as biochemical. The method, then: At concentrations above 250 μM, secondary reactions such as free S-nitrosothiol or NO2^− formation were observed.
as §1
Chemiluminescent analysis of S-nitrosothiol content was performed on samples originating from blue-native gels, intact mitochondria and SUPEROSE™ 6 chromatography fractions, according to known methodologies (Yang, et al. (2003) Free Radic. Res. 37:1-10). […] Each sample was run in duplicate and quantified using a standard curve created with known concentrations of NaNO2.

The subject of experiment [1] is isolated adult rat cardiomyocytes. Briefly: Mitochondrial H+ leak in cardiomyocytes (respiration divided by TMRE fluorescence) after ischemia-reperfusion. The experiment is classed as cell-based. Particulars: doses that protect cardiomyocyte viability. The method, then:
Cardiomyocyte respiration rate was measured with an oxygen electrode, and membrane potential with the fluorescent dye TMRE (20 nM) in a fluorimeter. H^+ leak is essentially the amount of work the respiratory chain must do to maintain a given membrane potential, and experimentally is derived by dividing respiration by TMRE fluoresence. […] All data are means±SEM, N>3.
Adult rat cardiomyocytes were prepared by collagenase perfusion according to standard methods (Dai, et al. (2001) supra), yielding ˜4×10^6 cells per heart, >80% rod-shaped and viable. Incubations were in a shaking water bath at 37° C., each utilizing 5×10^5 cells in 5 mL of the KH buffers described below. For the control, cells were incubated for 2 hours in oxygenated KH buffer (95/5 O2/CO2). For ischemia-reperfusion treatment, cells were subjected to 30 minutes in oxygenated KH buffer, 1 hour in “ischemic” KH buffer (95/5 N2/CO2, pH 6.5, no glucose), and 30 minutes in oxygenated KH buffer. […] At the end of each protocol, cell viability was assayed (Trypan blue), and mitochondrial function determined (measurement of ΔΨm with the fluorescent probe TMRE, respiration with an O2 electrode, and S-nitrosothiol content by chemiluminescence and biotin-switch.

`N[C@@H](CCC(=O)N[C@@H](CSN=O)C(=O)NCC(=O)O)C(=O)O` [S-nitrosoglutathione]: the “S-nitrosation of entire mitochondrial protein extract, comparison of NO donors” value with mitochondrial proteins (S-nitrosoglutathione 1 mM, DETA-NONOate 2 mM, ONOO- 3 additions of 100 μM, 37° C., 40 minutes) is listed as “far more S-nitrosation than DETA-NONOate or ONOO^−”. Moreover, the “concentration at which formation of protein bound S-nitrosothiol saturates” value with mitochondrial proteins (biotin-switch and chemiluminescent data together) is roughly 250 µM. The “concentration at which plateau of mitochondrial protein S-nitrosation is reached” value in the experiment with mitochondrial proteins (dose response over 50-250 μM) was roughly 200 µM. In addition, the “concentration above which secondary reactions (free S-nitrosothiol or NO2- formation) were observed” value with rat heart mitochondria is “above 250 μM”. For the same molecule, the “total S-nitrosothiol” value with rat heart mitochondria (100 μM treatment) is given as ~1700 pmol/mg mitochondrial protein. The “concentration approaching saturation of total S-nitrosothiol (free plus protein-bound)” value in the experiment on rat heart mitochondria (range 10 μM to 1 mM) is roughly 300 µM. Further, in experiment [1], the “effect on increase in mitochondrial H+ leak induced by ischemia-reperfusion” value was “prevent large increases in H^+ leak”.
